The record followed here is PubChem BioAssay AID372 (MTDP, 2006).

Molecules are shown by their SMILES. Calls of active or inactive are those of the source. Rule as the data show it: active = inhibition above about 50%; inactive = the rest.

The target in this experiment is Gag-Pol polyprotein (Human immunodeficiency virus type 1 group M subtype B (isolate HXB2)) (UniProt P04585). As to the kind of experiment: RNase H inhibition, HIV 1 Gag Pol polyprotein, FRET biochemical assay, screening (AID 372). The conditions noted are these: HIV-1 RT RNase H, FRET RNA/DNA substrate fluorescence.
`O=C1C(Cl)=C(NC(=O)c2ccccc2)C(=O)C(Cl)=C1NC(=O)c1ccccc1`: the IC50 is 4 µM.
In the case of `Cc1sc(NC(=O)Cc2ccccc2)c(C(N)=O)c1C` it was 8 µM; in that of `O=C1NC(=S)S/C1=C/c1cccc(OCc2ccc(Cl)c(Cl)c2)c1`, 4 µM; in that of `O=C1NC(=S)N(c2ccccc2F)C(=O)/C1=C/c1ccc(OCc2cccc(C(=O)O)c2)cc1`, 9 µM.
In the case of `N#Cc1c(N)nc(SCC(=O)c2ccc(O)c(O)c2)c(C#N)c1-c1ccc(O)cc1`, the IC50 is 0.9 µM.
As for `Cc1ccc(-n2c(/C=C/c3ccc(O)c(O)c3)nc3ccccc3c2=O)cc1`, the IC50 was 3.8 µM.
In the case of `O=C1NC(=S)N(c2ccccc2F)C(=O)C1=Cc1ccco1` it was 2.2 µM; in that of `O=C1C(Cl)=C/C(=N\S(=O)(=O)c2ccc(Cl)cc2)C(Cl)=C1Cl`, 4 µM.
In the case of `O=C1CC(=O)c2ccc3c4c(ccc1c24)C(=O)CC3=O` it was 3.8 µM; in that of `COc1ccc(/C=C\C(=O)c2c(-c3ccccc3)c3cc(C)ccc3[nH]c2=O)c(OC)c1`, 22 µM; in that of `Cc1ccc(C)n1-c1ccc(SCC(=O)O)cc1`, 8 µM.
In the case of `Cc1ccc(S(=O)(=O)N=C2C=CC(=O)C=C2)c(C)c1` it was 1.9 µM; in that of `Cc1ccc(C(=O)Nc2sc(C)c(C)c2C(N)=O)cc1`, 0.6 µM; in that of `O=C1C(Cl)=CC(=NS(=O)(=O)c2ccccc2)C=C1Cl`, 3.1 µM.
In the case of `COc1cc(/C=N\c2sc3c(c2C(=O)NCc2ccccc2)CCCC3)cc(Cl)c1O`, the half-inhibitory concentration (IC50) is 2.1 µM.
The value for `O=C1/C(=C/c2ccc(O)c(O)c2)SC(=S)N1C1CCCCC1` was 5.7 µM; that for `CCOc1ccc(NC(=O)c2c(NC(=O)c3ccco3)sc3c2CCCCC3)cc1` was 10 µM.
In the case of `CCOc1ccc(N2C(=O)/C(=C/c3ccc(Br)o3)C(=O)NC2=S)cc1` it was 2.1 µM.
The value for `NC(=O)c1c(N)sc2c1CCCCC2` was 2 µM; that for `O=c1[nH]c(=S)n(-c2ccccc2F)c(O)c1C=C1C=CC=N1` was 2.3 µM; that for `Cc1ccc(NC(=O)c2c(NC(=O)C(F)(F)F)sc(-c3ccccc3)c2C)c(C)c1` was 2.8 µM.
Consider `O=C(NC(=S)Nc1cc(-c2nc3ccccc3s2)ccc1Cl)c1ccc(F)cc1`, for which the IC50 was 9.1 µM.
Regarding `C=CCn1c(N)c(-c2nc3ccccc3[nH]2)sc1=S`, the half-inhibitory concentration (IC50) was 2.8 µM.
For `Cc1ccc(C=C2C(=O)NC(=S)N(c3ccccc3Cl)C2=O)o1`, the concentration for half-maximal inhibition (IC50) is 8 µM.
In the case of `Nc1ccc(S(=O)(=O)O)c2cccc(O)c12` it was 10 µM; in that of `O=C1NC(=S)N(c2cccc(Cl)c2)C(=O)/C1=C\C=C\c1ccco1`, 7.7 µM; in that of `O=C(O)c1cc(-c2ccc(/C=C3/Sc4ccccc4C3=O)o2)ccc1O`, 3.3 µM.
The value for `CCN1C(=O)/C(=C/c2ccoc2)C(=O)NC1=S` was 40 µM; that for `CCOc1ccc(N2C(=O)/C(=C/c3ccc(I)o3)C(=O)NC2=S)cc1` was 4.8 µM; that for `CC1=C(C)CC(C(=O)Nc2ccc(N3C(=O)c4ccccc4C3=O)cc2)C(C(=O)O)C1` (stereo unspecified) was 100 µM.
On to `COc1cc(C=O)ccc1OCCCOc1cccc(Oc2ccccc2)c1`, for which the half-maximal inhibitory concentration (IC50) is 100 µM.
The value for `Cc1sc(NC(=O)c2ccc3c(c2)OCO3)c(C(N)=O)c1C` was “inactive”.
In the case of `Cc1ccc(-c2cc(C(=O)Nc3sc(C(=O)OC(C)C)c(C)c3C(N)=O)c3ccccc3n2)s1` it was “inactive”.
Take `O=C1C=CC(=NS(=O)(=O)c2ccc(Cl)c([N+](=O)[O-])c2)C=C1`: the 50% inhibitory concentration (IC50) was 1.5 µM.
The value for `Cc1cc(I)c2c(c1)C1C=CCC1C(C(=O)O)N2` (stereo unspecified) was 100 µM; that for `Cc1sc(NC(=O)c2ccco2)c(C(N)=O)c1C` was 3.2 µM.
The value for `O=C1C=CC(=O)C(c2cc(Cl)ccc2Cl)=C1` was 2.1 µM; that for `COc1ccc(C(=O)NC(=S)Nc2ccc3nn(-c4ccc(C)c(Cl)c4)nc3c2)cc1[N+](=O)[O-]` was 17 µM.
The value for `Cc1cc(C(=O)O)ccc1-n1c(C)ccc1C` was 100 µM.
In the case of `O=C1NC(=S)N(c2ccc(Cl)cc2)C(=O)/C1=C\C=C\c1ccccc1[N+](=O)[O-]`, the IC50 is 3.3 µM.
As for `CCOc1ccc(C2=CC(=O)C=CC2=O)cc1`, the IC50 was 0.9 µM.
In the case of `Cc1sc2nc(-c3ccc([N+](=O)[O-])cc3)[nH]c(=O)c2c1C` it was 0.55 µM.
Turning to `COc1ccc(N2C(=O)/C(=C/c3ccc(I)o3)C(=O)NC2=S)cc1`, the 50% inhibitory concentration (IC50) was 3.7 µM.
The value for `NC(=O)c1c(NC(=O)COc2ccccc2)sc2c1CCCCC2` was “inactive”.
In the case of `Cc1cc(C)c2c(=O)[nH]c(SCC(=O)c3ccc(O)c(O)c3)nc2n1` it was 3.4 µM; in that of `COc1ccc(-c2c(C#N)c(N)nc(SCC(=O)c3ccc(O)c(O)c3)c2C#N)cc1`, 1.8 µM; in that of `COc1ccc(-c2nc3sc(-c4ccc(OC)cc4)nc3s2)cc1`, 1.9 µM.
On to `NC(=O)c1c(NC(=O)CCc2ccccc2)sc2c1CCCCCC2`, for which the half-maximal inhibitory concentration (IC50) is 1.5 µM.
The value for `CCC(=O)Nc1sc2c(c1C(=O)Nc1ccc(OC)cc1)CCCCC2` was “inactive”; that for `O=C1NC(=S)N(c2ccc(Cl)cc2)C(=O)/C1=C/c1ccco1` was 8.9 µM; that for `Cc1cc(-c2ccc(C=C3C(=O)NC(=S)NC3=O)o2)c([N+](=O)[O-])cc1C` was 3 µM.
In the case of `O=c1oc2ccccc2c(O)c1/C=C1\C=Nc2ccccc21` it was 3.2 µM; in that of `O=C(N/N=C/c1ccccc1Cl)c1cc(O)c(O)c(O)c1`, 0.6 µM; in that of `CCOc1cccc(N2C(=O)/C(=C/c3cn(CC(=O)OC)c4ccccc34)C(=O)NC2=S)c1`, 5.5 µM.
In the case of `Cc1ccc(S(=O)(=O)/N=C2\C=C(Sc3ncn[nH]3)C(=O)c3ccccc32)cc1` it was 1.3 µM; in that of `COC(=O)c1c(N)sc(C(=O)Nc2ccc(OC)cc2)c1C`, 6.6 µM.
On to `Cc1ccc(S(=O)(=O)/N=C2\C=CC(=O)C=C2Cl)cc1`, for which the IC50 was 1.5 µM.
Consider `O=C1C=C/C(=N\S(=O)(=O)c2cc(Cl)ccc2Cl)C=C1Cl`, for which the half-inhibitory concentration (IC50) was 2 µM.
In the case of `Cc1nn(CC(=O)Nc2sc(C)c(C)c2C(N)=O)c(C)c1[N+](=O)[O-]` it was 4.3 µM; in that of `COc1ccc2c(c1)N(C(=O)CN1C(=O)c3ccccc3C1=O)C(C)(C)c1ssc(=S)c1-2`, 3 µM; in that of `O=C(Cc1ccccc1Cl)c1ccc(O)c(O)c1O`, 2 µM.
In the case of `Cc1ccc(C)n1-c1ccc(Br)cc1C(=O)O` it was 32 µM; in that of `COc1cccc2cc(C(N)=O)c(=O)oc12`, 4 µM.
In the case of `O=C1Nc2ccc(I)cc2C1(O)N1CCOCC1` (stereo unspecified) it was 6.3 µM; in that of `O=C(N/N=C/c1ccc(/C=N/NC(=O)c2ccc(O)c(O)c2)cc1)c1ccc(O)c(O)c1`, 2.1 µM.
Turning to `O=C1C=CC(=O)C(c2cccc(Cl)c2)=C1`, the IC50 is 2.3 µM.
The value for `Oc1ccc(/C=N/Nc2nncc(-c3ccccc3)n2)c(O)c1O` was 6.8 µM; that for `Cc1c(Cl)ccc2c1NC(C(=O)O)C1CC=CC21` (stereo unspecified) was 22 µM.
In the case of `Cc1cccc(NCC(=O)N/N=C\c2c(Br)cc(Br)c(O)c2Br)c1` it was 62 µM; in that of `Cc1cc(Cl)ccc1OCC(=O)Nc1sc(C)c(C)c1C(N)=O`, 10.7 µM.
In the case of `CCOc1ccc(NC(=O)c2c(NC(=O)c3ccccc3)sc3c2CCCCC3)cc1` it was “inactive”.
